Ten substances from US9211325B2, “Peptide adjuvants” (priority 2008, dated 2015) can be followed below.

Parameters in all cases: species or system BALB/c mice
What all share (conditions): mouse, in vivo

For assay [1], the system named is HA (peptide pools derived from HA).
Assay [2] has as its system homologous influenza virus isolate used for immunization (MDCK cells, CPE).
The test system of assay [3] is Total anti-influenza IgG antibodies.
For assay [4], the system named is Total anti-HBS antibodies.

Turning to “EMWCM (Short peptide sequence not known to occur in nature)”, the “T-cell response (ELISPOT), FIG. 18” value in assay [1] was “did not”.

As to “CHKWD (Short peptide sequence not known to occur in nature) [5mer1]”, in assay [2], the “Neutralizing antibody response, FIG. 2” value is listed as “did not cause a strong neutralizing antibody response”.

Consider “EHWCM (Short peptide sequence not known to occur in nature)”, for which the “T-cell response (ELISPOT), FIG. 18” value in assay [1] was “generated a large T-cell response”.

Consider “WHKCE (Short peptide sequence not known to occur in nature) [5mer2]”, for which the “Neutralizing antibody response, FIG. 2” value in assay [2] is reported as “did not cause a strong neutralizing antibody response”.

In the case of “KWCEC (Short peptide sequence not known to occur in nature) [5mer4]”, in assay [1], the “T cell response (ELISPOT) compared with other adjuvants, FIG. 16” value is “stronger than that generated with alum alone and comparable to that generated by CpG”. In addition, in assay [2], the “Neutralizing antibody response, FIG. 2” value was “caused a significant antibody response”.

Consider “KYMCW (Short peptide sequence not known to occur in nature) [5mer7]”, for which the “Neutralizing antibody response, FIG. 2” value in assay [2] was “caused a significant antibody response”.

In the case of “CKWRC (Short peptide sequence not known to occur in nature) [5mer3]”, the “Neutralizing antibody response, FIG. 2” value in assay [2] was “did not cause a strong neutralizing antibody response”.

On to “free peptide (KWCEC; Short peptide sequence not known to occur in nature)”, for which the “antibody response (ELISA) after fluviral vaccination” value in assay [3] was “stronger response at both 6 and 8 weeks post immunization”. Besides, in assay [4], the “Total anti-HBS antibodies (ELISA) response” value was “strong response at both 6 and 8 weeks post immunization”.

“CYWWW (Short peptide sequence not known to occur in nature)”: the “T-cell response (ELISPOT), FIG. 18” value in assay [1] is recorded as “generated a significant T-cell response”.

As for “CYYWC (Short peptide sequence not known to occur in nature)”, in assay [1], the “T-cell response (ELISPOT), FIG. 18” value is listed as “below the baseline of HA alone”.
